Results published in patent US7507729B2, “Substituted imidazo-[1,5-a][1,2,4]triazolo[1,5-d][1,4] benzodiazepine derivatives” (priority 2005, dated 2009).

Tests used:
[1] = biological target: T1, GABA A receptor α5β3γ2 (hα5) (Homo sapiens, UniProt P18507+P31644); experiment: [3H]flumazenil competition binding, membranes of HEK293 cells expressing human GABA A α5β3γ2; conditions: [3H]flumazenil 0.5 nM, 1 hour at 4° C., means of two determinations; read-out: Ki[nM] hα5
T1 construct: expressed in transfected cells; host or cells: HEK293, transiently transfected; membranes
Method: (§1) The affinity of compounds at GABA A receptor subtypes was measured by competition for [^3H]flumazenil (85 Ci/mmol; Roche) binding to HEK293 cells expressing rat (stably transfected) or human (transiently transfected) receptors of composition α1β3γ2, α2β3γ2, α3β3γ2 and α5β3γ2.
(§2) Cell pellets were suspended in Krebs-tris buffer (4.8 mM KCl, 1.2 mM CaCl2, 1.2 mM MgCl2, 120 mM NaCl, 15 mM Tris; pH 7.5; binding assay buffer), homogenized by polytron for ca. 20 sec on ice and centrifuged for 60 min at 4° C. (50000 g; Sorvall, rotor: SM24=20000 rpm). The cell pellets were resuspended in Krebs-tris buffer and homogenized by polytron for ca. 15 sec on ice. Protein was measured (Bradford method, Bio-Rad) and aliquots of 1 mL were prepared and stored at −80° C.
(§3) Radioligand binding assays were carried out in a volume of 200 μL (96-well plates) which contained 100 μL of cell membranes, [^3H]flumazenil at a concentration of 1 nM for α1, α2, α3 subunits and 0.5 nM for α5 subunits and the test compound in the range of 10^−10-3×10^−6 M.
(§4) Nonspecific binding was defined by 10^−5 M diazepam and typically represented less than 5% of the total binding. Assays were incubated to equilibrium for 1 hour at 4° C. and harvested onto GF/C uni-filters (Packard) by filtration using a Packard harvester and washing with ice-cold wash buffer (50 mM Tris; pH 7.5). After drying, filter-retained radioactivity was detected by liquid scintillation counting. Ki values were calculated using Excel-Fit (Microsoft) and are the means of two determinations.

[2] = biological target: T2, GABA A receptor α1β3γ2 (hα1) (Homo sapiens, UniProt P14867+P18507); experiment: [3H]flumazenil competition binding, membranes of HEK293 cells expressing human GABA A α1β3γ2
T2 construct: expressed in transfected cells; host or cells: HEK293, transiently transfected; membranes
Method: as §1, §2, §3, §4

## Clc1ccc2c(c1)-c1nc(Cn3ccnn3)nn1Cc1c(Cl)ncn1-2 [Example 11, 3,10-Dichloro-6-[1,2,3]triazol-1-ylmethyl-9H-imidazo[1,5-a][1,2,4]triazolo[1,5-d][1,4]benzodiazepine]
[1]
  Ki: 0.5 nM
[2]
  Ki: 48.3 nM

## Clc1ccc2c(c1)-c1nc(Cn3nccn3)nn1Cc1c(Cl)ncn1-2 [Example 10, 3,10-Dichloro-6-[1,2,3]triazol-2-ylmethyl-9H-imidazo[1,5-a][1,2,4]triazolo[1,5-d][1,4]benzodiazepine]
[1]
  Ki: 0.4 nM
[2]
  Ki: 63.3 nM
